According to patent publication US9121022B2, “Method for controlling herbicide-resistant plants” (priority 2010, dated 2015):
Entries after “also recorded” stand apart in the source; their conditions may differ. d = 2'-deoxy (DNA); r = 2'-OH (RNA)

B1: 9 (nucleic acid)
chain 1: GCAAGAGATGTCCTAGGTGGG
chain 2: ACAGATTTCTTCAGGAGAAACATGG
chain 3: CATCTCCTTTAATTGTACTGCC
chain 4: TTTAATTGTACTGCCATTATTC
chain 5: CACTTCCATCCTCATTCAGCTCGAT
chain 6: ACACCTCATCTGTCACCCTATCAG
chain 7: CAGTCTCGTACCAATCTCCATCAT
modifications: DNA, backbone not given here
B2: 678 bp Palmer PDS dsRNA: dsRNA to positions 317-994 of Palmer amaranth PDS (SEQ ID NO:37) (nucleic acid, listed as Amaranthus palmeri)
sense: TAGGAGGAAAGGTTGCAGCGTGGAAGGATGAGGATGGTGACTGGTATGAGACTGGGCTACATATATTCTTTGGGGCATATCCAAATGTCCAAAATCTATTTGGAGAACTTGGTATAAATGACCGACTGCAATGGAAGGAGCACTCTATGATTTTTGCAATGCCCAGCAAGCCCGGTGAATTCAGTCGCTTTGATTTTCCCGAAATCCTGCCTGCACCATTAAATGGCATATGGGCAATCCTAAGAAATAATGAAATGCTAACCTGGCCAGAAAAAATCAAGTTTGCCATTGGCTTGTTGCCTGCTATGGCAGGCGGACAGTCATATGTTGAAGCACAAGATGGTTTGAGTGTCCAAGAGTGGATGAGAAAACAAGGAGTACCCGATCGTGTAACTGATGATGTGTTTATTGCCATGTCAAAGGCACTGAACTTCATAAATCCCGATGAACTTTCAATGCAGTGCATCTTGATTGCTCTGAACCGATTCCTGCAGGAGAAACATGGTTCTAAGATGGCCTTCCTAGACGGAAACCCTCCAGAGAGGCTGTGCATGCCTATTGTTAAACACATCGAGTCACTAGGTGGTGAAGTTAAACTTAACTCTCGTATACAAAAGATTCAGTTGGACCAGAGTGGAAGCGTGAAGAGTTTTTTGCTAAATAACGGGAGGGAAATAC
modifications: complementary strand
B3: Treatment 10: dsRNA corresponding to nucleotides 914-1113 of SEQ ID NO:2 (nucleic acid, listed as Nicotiana benthamiana)
chain: ACAGATTTCTTCAGGAGAAACATGGTTCAAAAATGGCCTTTTTAGATGGTAACCCTCCTGAGAGACTTTGCATGCCGATTGTGGAACATATTGAGTCAAAAGGTGGCCAAGTCAGACTAAACTCACGAATAAAAAAGATCGAGCTGAATGAGGATGGAAGTGTCAAATGTTTTATACTGAATAATGGCAGTACAATTAAA
modifications: double-stranded RNA

Tests used:
[1] = test system: Nicotiana benthamiana phytoene desaturase; test: topical PDS oligonucleotides/polynucleotides on tobacco, bleaching and chlorophyll (Example 10); format: in vivo; conditions: for Chlorophyll (day 7) / Chlorophyll (day 12): 6 spots on the apical area, lower values indicate suppression of phytoene desaturase; for systemic regulation (suppression) of the target phytoene desaturase gene: conclusion from Table 4; for Bleaching (day 5): day 5 after treatment
From the text: The target gene used was a Nicotiana benthamiana phytoene desaturase (SEQ ID NO:2), shown in FIG. 10; the segment consisting of nucleotides 421-1120 of SEQ ID NO:2 (underlined text in FIG. 10) was used to design a 700-mer dsRNA polynucleotide (“PDS 700-mer”) and the segment consisting of nucleotides 914-1113 of SEQ ID NO:2 (bolded underlined text in FIG. 10) was used to design a 200-mer dsRNA polynucleotide (“PDS 200-mer”). FIG. 11 schematically depicts the location of the sequences of these oligonucleotides and polynucleotides in relation to the […] (SEQ ID NO:2) sequence. Non-plant sequences obtained from corn rootworm (“CRW”), SEQ ID NOs:27, 28, 29, and 30 were used as non-homologous controls. Some of the polynucleotides included a T7 promoter sequence (indicated by lower-case text in Table 3) that is a promoter recognized by a bacteriophage T7 RNA polymerase.
The following procedure was used for all assays described in this example. Four-week old Nicotiana benthamiana plants were used in all assays. Plants were treated with 0.1% SILWET L-77® brand surfactant solution freshly made with ddH2O. Two fully expanded leaves per plant (one cotyledon, one true leaf) were dipped into the SILWET L-77® brand surfactant solution for a few seconds, and allowed to dry for 15-30 minutes before application of the polynucleotide composition. Final concentration for each oligonucleotide or polynucleotide was 25 microM (in 0.01% SILWET L-77® brand surfactant, 5 mM sodium phosphate buffer, pH 6.8) unless otherwise stated. 20 microliters of the solution was applied to the top surface of each of the two pre-treated leaves to provide a total of 40 microliters (1 nmol oligonucleotide or polynucleotide) for each plant. Leaf bleaching was observed 3 days post treatment.
FIG. 13 illustrates phenotypes observed at day 12 after treatment in another assay of the effect from twelve combinations of polynucleotides or oligonucleotides (see Table 4). Table 4 also lists observations of visible bleaching of the plants at day 5 after treatment and the results of chlorophyll measurements taken at days 7 and 12 after treatment. Chlorophyll measurements are an indication of suppression of the target gene phytoene desaturase, and measurements were taken at 6 spots on the apical area, focussing on visibly bleached leaves or (in plants without visible bleaching) on leaves in equivalent locations on the plants; lower chlorophyll measurement values indicate suppression of phytoene desaturase.

[2] = test system: Palmer amaranth (EPSPS copy numbers 16 to 112); test: combinations of EPSPS, TIF and ddATPase polynucleotides with glyphosate, protocols of Table 12 (Example 26, Table 13); format: in vivo, Palmer amaranth (Amaranthus palmeri)
Method: The polynucleotides listed in Table 11 were produced by synthesis or by in vitro transcription.
Solutions of the polynucleotides were prepared and applied to the leaves of Palmer amaranth using the protocols described in Table 12.

[3] = test system: Palmer amaranth phytoene desaturase (PDS); test: sequence specificity of PDS dsRNA on Palmer amaranth, leaf bleaching (Example 11); format: in vivo
From the text: Palmer amaranth phytoene desaturase (PDS) has the sequence […] […] […] […] […] […] […] […] […] […] […] […] […] […] […] […] […] […] […] […] […] […] […] […] (SEQ ID NO:37). A 678 base pair dsRNA polynucleotide with an anti-sense strand capable of hybridizing to the RNA encoded by the nucleotides at positions 317-994 (shown as underlined text) in SEQ ID NO:37 and a 198 base pair dsRNA polynucleotide with an anti-sense strand capable of hybridizing to the RNA encoded by the nucleotides at positions 797-994 (shown as italicized and underlined text) in SEQ ID NO:37 were synthesized.
Nicotiana benthamiana phytoene desaturase has the sequence […] […] […] […] […] […] […] […] […] […] […] […] […] […] […] […] […] […] […] […] […] […] […] […] […] […] (SEQ ID NO:38). A 685 base pair dsRNA polynucleotide with an anti-sense strand capable of hybridizing to the RNA encoded by the nucleotides at positions 421-1105 (shown as underlined text) in SEQ ID NO:38 and a 192 base pair dsRNA polynucleotide with an anti-sense strand capable of hybridizing to the RNA encoded by the nucleotides at positions 914-1105 (shown as italicized and underlined text) in SEQ ID NO:38 were synthesized.
Palmer amaranth plants having 16 copies of EPSPS and 5-8 inches high were treated with 0.1% SILWET L-77® brand surfactant solution freshly made with ddH2O. Four fully expanded leaves per plant were dipped into the SILWET L-77® brand surfactant solution for a few seconds, and allowed to dry for 30 minutes to 1 hour before application of the polynucleotide composition. Individual polynucleotide solutions were made for each of the 678 bp Palmer PDS dsRNA, 198 bp Palmer PDS dsRNA, the 685 bp Nicotiana benthamiana PDS dsRNA, and the 192 bp Nicotiana benthamiana PDS dsRNA (0.6 micromolar polynucleotide in 0.01% SILWET L-77® brand surfactant, 5 mM sodium phosphate buffer, pH 6.8). 10 microliters of polynucleotide solution (or buffer as a control) was applied to the top surface of each of the four pre-treated leaves per plant to provide a total of 40 microliters for each plant. Plants were kept in a growth chamber, and leaf bleaching was observed 3 days post treatment.

[4] = Protocol 3, 29 g/acre, copy number 16, 13 DAT

| Molecule | Chlorophyll (day 7) [1] | Chlorophyll (day 12) [1] | systemic regulation (suppression) of the target phytoene desaturase gene [1] | Bleaching (day 5) [1] | further results |
| --- | --- | --- | --- | --- | --- |
| 6 (sense ATCCATGATATCGTGAACATC; antisense GCAAAGAAAAATGCGTCG; DNA, backbone not given here) [compound 6] | 34.2 | 38.2 | did not suppress | not yet | – |
| 7 (sense 1 GCAAGAGATGTCCTAGGTGGG; sense 2 ACAGATTTCTTCAGGAGAAACATGG; DNA, backbone not given here) [compound 7] | 32.0 | 41.1 | did not suppress | not yet | – |
| 8 (antisense 1 CATCTCCTTTAATTGTACTGCC; antisense 2 TTTAATTGTACTGCCATTATTC; DNA, backbone not given here) [compound 8] | 11.3 | 3.2 | effective | strong | – |
| IDT [1]: Palmer/EPSPS dsRNA, SEQ ID NO. 83, 84; 25-mer sense with two 3′ deoxyribonucleotides, 27-mer anti-sense (sense CUACCAUCAACAAUGGUGUCCAUAC; antisense GUAUGGACACCAUUGUUGAUGGUAGUA; sense: sugars from the 5' end r23 d2, backbone not given here; antisense: RNA, backbone not given here) | – | – | – | – | Results: stunted [2, 4]: 51% stunted |
| IDT [2]: Palmer/EPSPS dsRNA, SEQ ID NO. 85, 86 (chain 1 AGUUGGUGGGCAAUCAUCAAUUGTT; chain 2 AACAAUUGAUGAUUGCCCACCAACUCU; chain 1: sugars from the 5' end r23 d2, backbone not given here; chain 2: RNA, backbone not given here) | – | – | – | – | Results: control [2, 4]: 0% control |
| IDT [3]: Palmer/EPSPS dsRNA, SEQ ID NO. 87, 88 (chain 1 GGUCGACAACUUGCUGUAUAGUGAT; chain 2 AUCACUAUACAGCAAGUUGUCGACCUC; chain 1: sugars from the 5' end r23 d2, backbone not given here; chain 2: RNA, backbone not given here) | – | – | – | – | Results: stunted [2, 4]: 51% stunted |
| IDT [5]: Palmer/EPSPS dsRNA (21-mer) with blunt ends, SEQ ID NO. 91, 92 (chain 1 AACAUGAACAAAAUGCCAGAU; chain 2 AUCUGGCAUUUUGUUCAUGUU; RNA, backbone not given here) | – | – | – | – | Results: stunted ([2]; Protocol 1, 0.29 g/acre, copy number 33, 54, 55, 18 DAT): 71%; Results: killed ([2]; Protocol 1, 2.9 g/acre each, copy number 34, 36, 54, 22 DAT): 100% kill; Results: killed ([2]; Protocol 1, 2.9 g/acre, copy number 33, 54, 55, 18 DAT): 100% killed |
| Treatment 8: SEQ ID NO: 22, 23; anti-sense 22-mer oligos without T7 promoter (antisense 1 CATCTCCTTTAATTGTACTGCC; antisense 2 TTTAATTGTACTGCCATTATTC; listed as DNA, chemistry not given here) | – | – | – | – | bleaching of apical leaves (FIG. 15) ([1]; another assay, listed as PDS anti-sense): strong bleaching; also recorded: apical leaf bleaching observed |
| B1 | 30.2 | 34.4 | – | not yet | – |
| B2 | – | – | – | – | bleaching of leaves ([3]; 0.6 micromolar, 40 microliters per plant, 3 days post treatment): showed bleaching of leaves; bleaching of leaves (FIG. 17) ([3]; separate assay): apical leaf bleaching observed |
| B3 | – | – | also effective | – | bleaching of apical leaves (FIG. 12A) ([1]; 200-mer dsRNA at 0.6 microM, oligonucleotides 25 microM each): Bleaching of apical leaves was observed |
